Consider one sequence from patent US20220088115A1, “PHARMACEUTICAL COMPOSITION, COMPRISING INHIBITORY PEPTIDE AGAINST FAS SIGNALING, FOR PREVENTION OR TREATMENT OF OBESITY, FATTY LIVER, OR STEATOHEPATITIS” (SIGNET BIOTECH INC., priority 2018, published 2022).

The subject of data set [1] is obesity model mice. The data set is described as follows: Glucose tolerance test (GTT) and insulin tolerance test (ITT), obesity model mice, intravenous FBP-8. The data set is classed as in vivo, C57BL/6 mice. The method, then:
(§1) All animal experiments performed for the present invention were approved by the Institutional Animal Care and Use Committee of Hanyang University. […] Thereafter, depending on the experimental group, 60 μg/one time of FBP8 were administered by intravenous injection twice a week for a total of 5 weeks (FIG. 13), or FBP7 was administered by subcutaneous injection twice a day.
For a glucose intolerance analysis, a dose of 2 g/kg of glucose was injected by intraperitoneal injection into each experimental group maintained in a fasting state for 12 hours, and blood glucose levels were measured after 30, 60 and 120 minutes by Accu-check (Roche, USA).
Insulin resistance was analyzed by measuring blood glucose levels 30 minutes, 60 minutes and 120 minutes after a dose of 0.75 U/kg of insulin was injected by intraperitoneal injection into each experimental group maintained in a fasting state for 4 hours.

In data set [2] the test system is 3T3L1 cell line. The data set is described as follows: Apoptosis level in 3T3L1 cell line treated with FasL and peptide (annexin V flow cytometry). The data set is classed as cell-based, murine. To be noted: differentiated 3T3L1 treated with Fas ligand and peptide. Here is the method: (§2) The 3T3L1 cell line was cultured in a DMEM culture medium containing 10% FBS, 1% penicillin, 1% streptomycin, and 25 mM glucose. The 3T3L1 cell line was aliquoted into the above DMEM culture solution at a concentration of 2×10^5 cells/ml to induce adipocyte maturation for 3 days, and then replaced with a culture solution containing insulin to induce adipocyte maturation again for 3 days. Thereafter, the 3T3L1 cell line was further cultured in the above DMEM culture solution for 2 days to achieve complete maturation of adipocytes.
The 3T3L1 cell line was treated with a Fas ligand (FasL) at a concentration of 500 ng/ml to induce apoptosis, and FBP signal blocking peptides (FBP-8. FBP-A and FBP-7) and CtrFBP bound to Alexa647 were treated, respectively. After 4 hours of peptide treatment, cells were washed with DPBS and treated with FITC-bound annexin V (BD Pharmingen) to analyze the apoptosis inhibitory effect by a flow cytometer.

Data set [3] concerns obesity model mice. Description: Gene expression in white adipose and liver tissues, obesity model mice, intravenous FBP-8. The data set is classed as in vivo, C57BL/6 mice. The method, then:
as §1
(§3) mRNA was extracted from liver tissues and white adipose tissues using RNAiso (Takara, Japan), and cDNA was synthesized with an iscript cDNA synthesis kit (Bio-Rad Laboratories, USA). Thereafter, a gene expression level was analyzed by the 7500 Fast Real-time PCR system (Applied Biosystems, USA). The expression level of each gene was normalized with the expression level of a GAPDH gene, and then calculated as a relative gene expression level with respect to the control.
(§4) Obesity model mice were produced by feeding normal mice a high fat diet for 8 weeks, and FBP-8 was administered by intravenous injection twice a week for a total of 5 weeks (FIG. 13). After five weeks, the obesity model mice were sacrificed to isolate white adipose tissues and liver tissues and analyze the proportion of dead cells by TUNEL staining.

Data set [4] concerns 3T3L1 cell line. The data set is described as follows: Free fatty acid (FFA) release into 3T3L1 cell culture solution. The data set is classed as cell-based, murine. Conditions: 3T3L1 treated with FasL and FBP-8. The method, then: as §2
In data set [5] the test system is obesity model mice. Description: Pro-inflammatory cytokines in blood, obesity model mice, intravenous FBP-8. The data set is classed as in vivo, C57BL/6 mice. The method, then:
as §1
The cytokine levels of serum and tissues were analyzed with an ELISA kit (eBioscience, USA), and the triglyceride levels of liver tissues were confirmed with a triglyceride assay kit (Cayman, USA).

Data set [6] deals with obesity model mice. Description: Daily food intake and body weight change, obesity model mice, intravenous FBP-8. The data set is classed as in vivo, C57BL/6 mice. Here is the method:
as §1, §4

In data set [7] the test system is 3T3L1 cell line. The data set is described as follows: Expression of inflammation-related genes in 3T3L1 cell line treated with FasL and peptide. The data set is classed as cell-based, murine. Conditions: differentiated 3T3L1 treated with Fas ligand and FBP-8 in combination. Here is the method:
as §2, §3

Data set [8] can be described thus: Delivery of fluorescently labeled peptide to organs of normal body weight mice. The data set is classed as in vivo. Conditions: intravenous (IV) or subcutaneous (SC) injection, 12 hours.
Data set [9] deals with obesity model mice. The data set is described as follows: TUNEL staining of dead cells, obesity model mice, intravenous FBP-8. The data set is classed as in vivo, C57BL/6 mice. Conditions: intravenous twice a week for 5 weeks. The method, then: as §1
Furthermore, a terminal deoxynucleotidyl transferase dUTP nick end labeling (TUNEL) analysis for each tissue was performed with an in situ cell death detection kit (Millipore, USA). Thereafter, the fluorescence signals were analyzed under a TCS-SP5 confocal microscope by staining the nuclei with Hoechst 33342, and the fluorescence signals of each cell were analyzed with the Image J program.
as §4

Data set [10] can be described thus: Delivery of fluorescently labeled peptide to tissues of obesity model mice (HFD). The data set is classed as in vivo, C57BL/6 mice. The method, then: as §1
100 μg of an Alexa 647-bound peptide was administered by intravenous injection into obesity model mice, and after 12, 24, and 48 hours, the tissues were isolated, and the fluorescence signals in each tissue were analyzed with an image station fluorescence analyzer (Carestream). After the fluorescence signal analysis, the relative fluorescence intensity of each tissue was compared using an ImageJ program provided by NIH.
In addition, 100 μg of Alexa 488-bound FBP was administered by intravenous injection into obesity model mice to confirm whether cell units of peptides were delivered to liver tissues, and frozen tissue sections were produced by isolating the liver tissues after 12, 24, and 48 hours. Thereafter, the nuclei were stained with Hoechst 33342, and the fluorescence signals were analyzed under a TCS-SP5 confocal microscope.
Based on the Fas-specific binding ability of FBP-8 confirmed by the experiments, it was confirmed whether FBP-8 could be specifically delivered to liver tissues or adipose tissues when systemically delivered by intravenous injection or subcutaneous injection. Fluorescently labeled FBP-8 was injected by intravenous injection or subcutaneous injection into obesity model mice in the high fat diet group, and after 24 and 48 hours, the fluorescence distribution was investigated by isolating each organ.

Where [11] appears, read: compared to negative control (CtrFBP).
[12] abbreviates: intravenous, liver tissue sections.

Turning to “YCDEHFCY (Fas binding peptide-8 (FBP-8))”, the “blood glucose changes / glucose metabolism in GTT and ITT” value in data set [1] is listed as “improved glucose metabolism”. The same sequence gave an apoptosis level in data set [2] of 14±2.98%. For the same sequence, the “expression level of CD206 (anti-inflammatory macrophage marker) in liver tissues” value in data set [3] is reported as “no significant change”. In [3] (setting [11]), the “expression levels of F480 and CD11c (pro-inflammatory macrophage markers) in white adipose tissue” value is listed as “significantly reduced”; the “expression levels of F480 and CD11c in liver tissues” value was “decreased”; the “expression levels of inflammation-related genes Fas, TNF-α, MCP-1 and IL-6 in liver tissues” value is “significantly reduced”; the “expression of inflammation-related genes Fas, TNF-α, MCP-1 and IL-6 in white adipose tissues” value is on record as “reduced”. Further, the “reduction of stearoyl-CoA desaturase (SCD-1) expression level in liver tissues” value in data set [3] (setting [11]) is recorded as “about 30+5.32%”. Further, the “extracellular release of fatty acids (FFA)” value in data set [4] was “significantly inhibited”. Also, the “concentrations of IL-6 and MCP-1 in blood” value in data set [5] is recorded as “decrease”. Further, in data set [6], the daily food intake entry is given as “no significant change”. In data set [6] (setting [11]), the body weight gain result was “slower”. For the same sequence, the “expressions of inflammation-related genes Fas, TNF-α, MCP-1, F4/80, IL-6 and iNOS” value in [7] was “remarkably reduced”. For the same sequence, in [8], the “fluorescence signal in the liver tissue of normal mice” value is reported as “a significant fluorescence signal could not be observed”. Moreover, in [9], the “proportion of dead cells in liver tissue (TUNEL)” value is 9±2.37% and the “proportion of dead cells in white adipose tissue (TUNEL)” value is reported as 31+2.37%. Also, the “tissue delivery after intravenous injection” value in data set [10] (intravenous, 24 and 48 hours) was “specifically delivered to the liver tissue and white adipose tissue”. In data set [10] (setting [12]), the “time from which peptide was delivered to the liver tissue after intravenous injection” value worked out at 12 h and the “time until which peptide remained in the liver tissue after intravenous injection” value was determined as 48 h. For the same sequence, the “time remaining in the liver tissue after subcutaneous injection” value in [10] (subcutaneous) is at least 48 h. For the same sequence, in data set [10] (subcutaneous, compared to CtrFBP, 24 and 48 hours), the “tissue delivery after subcutaneous injection” value is given as “specifically delivered to the liver tissue”.
